Laboratory results taken from ChEMBL document CHEMBL4382202, “1-(2-Hydroxybenzoyl)-thiosemicarbazides are promising antimicrobial agents targeting d-alanine-d-alanine ligase in bacterio” (Eur J Med Chem, 2018).
≈ marks a conversion by molar mass, not a printed value.

How the values were obtained:
Enterococcus faecalis [1] = assay: Antibacterial activity against Enterococcus faecalis ATCC 29212 after 18 to 24 hrs by microdilution assay; type: functional
Staphylococcus aureus [2] = assay: Antibacterial activity against Staphylococcus aureus ATCC 25923 after 18 to 24 hrs by microdilution assay; type: functional
Enterococcus faecalis [3] = assay: Antibacterial activity against vancomycin-resistant Enterococcus faecalis BM 4390 after 18 to 24 hrs by microdilution assay; type: functional
Staphylococcus aureus [4] = assay: Antibacterial activity against community-acquired methicillin and erythromycin resistant Staphylococcus aureus SA 325 after 18 to 24 hrs by microdilution assay; type: functional
Staphylococcus aureus [5] = assay: Antibacterial activity against methicillin and vancomycin intermediate resistant Staphylococcus aureus MU50 after 18 to 24 hrs by microdilution assay; type: functional
[6] = molecular target: T1, D-alanine--D-alanine ligase (Enterococcus faecalis (strain ATCC 700802 / V583), UniProt Q47758); assay: Inhibition of Enterococcus faecalis JH2-2 C-terminal 6His-tagged DdlB expressed in Escherichia coli LMG194 preincubated for 30 mins followed by substrate addition and measured after 20 mins by Biomol Green reagent assay
T1 sequence (Q47758 whole entry): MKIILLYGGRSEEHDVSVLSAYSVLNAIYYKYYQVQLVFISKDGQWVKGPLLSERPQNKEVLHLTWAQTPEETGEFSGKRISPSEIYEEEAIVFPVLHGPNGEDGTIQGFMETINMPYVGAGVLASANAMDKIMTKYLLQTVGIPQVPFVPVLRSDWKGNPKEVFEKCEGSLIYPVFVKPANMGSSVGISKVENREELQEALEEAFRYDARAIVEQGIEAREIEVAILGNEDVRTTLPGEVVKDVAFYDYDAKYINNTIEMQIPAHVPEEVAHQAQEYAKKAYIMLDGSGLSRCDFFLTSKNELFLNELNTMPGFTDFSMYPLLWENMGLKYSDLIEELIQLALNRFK

Staphylococcus aureus [7] = assay: Antibacterial activity against hospital-acquired methicillin/ciprofloxacin/moxifloxacin resistant Staphylococcus aureus SA 481 after 18 to 24 hrs by microdilution assay; type: functional
Staphylococcus aureus [8] = assay: Antibacterial activity against methicillin and linezolid resistant Staphylococcus aureus NRS 119 clinical isolate after 18 to 24 hrs by microdilution assay; type: functional
Enterococcus faecalis [9] = assay: Antibacterial activity against vancomycin-resistant Enterococcus faecalis BM 4575 clinical isolate after 18 to 24 hrs by microdilution assay; type: functional
Staphylococcus aureus [10] = assay: Antibacterial activity against hospital-acquired methicillin and vacomycin resistant Staphylococcus aureus VRS-1 after 18 to 24 hrs by microdilution assay; type: functional
Enterococcus faecalis [11] = assay: Antibacterial activity against vancomycin-resistant Enterococcus faecalis JH2-2::C1 after 18 to 24 hrs by microdilution assay; type: functional

| Compound | MIC (Enterococcus faecalis [1]) [µM] | MIC (Staphylococcus aureus [2]) [µM] | MIC (Enterococcus faecalis [3]) [µM] | MIC (Staphylococcus aureus [4]) [µM] | MIC (Staphylococcus aureus [5]) [µM] | IC50 [6] [nM] | MIC (Staphylococcus aureus [7]) [µM] | MIC (Staphylococcus aureus [8]) [µM] | MIC (Enterococcus faecalis [9]) [µM] | MIC (Staphylococcus aureus [10]) [µM] | MIC (Enterococcus faecalis [11]) [µM] |
| --- | --- | --- | --- | --- | --- | --- | --- | --- | --- | --- | --- |
| O=C(NNC(=S)Nc1cccc(Cl)c1)c1ccccc1 | > 400 | > 100 | – | – | – | – | – | – | – | – | – |
| O=C(NNC(=S)Nc1ccc(Cl)cc1)c1ccccc1 | > 400 | > 100 | – | – | – | – | – | – | – | – | – |
| O=C(NNC(=S)Nc1ccccc1Cl)c1ccccc1 | > 400 | > 100 | – | – | – | – | – | – | – | – | – |
| O=C(NNC(=S)Nc1ccccc1)c1ccccc1O | > 400 | > 100 | > 100 | > 100 | > 100 | 800 | > 100 | > 100 | > 100 | > 100 | > 100 |
| O=C(NNC(=S)Nc1ccc(Cl)c(Cl)c1)c1ccc(O)cc1 | > 400 | > 100 | – | – | – | – | – | – | – | – | – |
| O=C(NNC(=S)Nc1ccc(Cl)c(Cl)c1)c1cccc(O)c1 | > 400 | > 100 | – | – | – | – | – | – | – | – | – |
| O=c1c2ccccc2ncn1NC(=S)Nc1ccccc1 | > 400 | > 100 | – | – | – | – | – | – | – | – | – |
| O=C(NNC(=S)Nc1cccc2ccccc12)c1ccccc1O | > 400 | > 100 | > 100 | > 100 | > 100 | 520 | > 100 | > 100 | > 100 | > 100 | > 100 |
| O=C(NNC(=S)Nc1cccc(Cl)c1)c1ccccc1O | 400 (≈ 129 µg/mL) | 100 (≈ 32.2 µg/mL) | > 100 | 100 (≈ 32.2 µg/mL) | > 100 | 630 | > 100 | > 100 | > 100 | > 100 | > 100 |
| O=C(NNC(=O)c1ccccc1)Nc1ccc(Cl)c(Cl)c1 | > 100 | > 100 | – | – | – | – | – | – | – | – | – |
| O=C(NNC(=S)Nc1ccc(OC(F)(F)F)cc1)c1ccccc1O | 50 (≈ 18.6 µg/mL) | 25 (≈ 9.28 µg/mL) | > 100 | 100 (≈ 37.1 µg/mL) | > 100 | 700 | > 100 | 100 (≈ 37.1 µg/mL) | > 100 | > 100 | 100 (≈ 37.1 µg/mL) |
| Nc1ccc(C(=O)NNC(=S)Nc2ccc(Cl)c(Cl)c2)c(O)c1 | > 400 | > 100 | > 100 | > 100 | > 100 | 990 | > 100 | > 100 | > 100 | > 100 | > 100 |
| O=C(NNC(=S)Nc1ccccc1F)c1ccccc1O | 200 (≈ 61.1 µg/mL) | > 100 | > 100 | > 100 | > 100 | 970 | > 100 | > 100 | > 100 | > 100 | > 100 |
| O=C(NNC(=O)c1ccccc1O)Nc1ccc(Cl)c(Cl)c1 | > 100 | > 100 | – | – | – | – | – | – | – | – | – |
| N#Cc1ccc(NC(=S)NNC(=O)c2ccccc2O)cc1 | 100 (≈ 31.2 µg/mL) | > 100 | > 100 | > 100 | > 100 | 510 | > 100 | > 100 | > 100 | > 100 | > 100 |
| O=C(NNC(=S)Nc1ccc(Cl)c(Cl)c1)c1ccc(I)cc1O | > 400 | 100 (≈ 48.2 µg/mL) | > 100 | > 100 | > 100 | 930 | > 100 | > 100 | > 100 | > 100 | > 100 |
| O=C(NNC(=S)Nc1ccc(OCc2ccccc2)cc1)c1ccccc1O | > 400 | 100 (≈ 39.3 µg/mL) | > 100 | > 100 | > 100 | 990 | > 100 | > 100 | > 100 | > 100 | > 100 |
| O=C(NNC(=S)Nc1ccccc1F)c1ccccc1 | > 400 | > 100 | – | – | – | – | – | – | – | – | – |
